Measured values published in the NIST ThermoML archive (doi:10.1016/j.fluid.2017.06.022).
“And” between values parts separate entries of the source, which are not always exact repeats. Equal values may be shown once.

Experiment: xn = mol fraction of the nth substance listed
Conditions: Liquid, Bellows volumetry

C=C [ethene] + Cc1ccccc1
Conditions | mass density
325.3 K, 3200 kPa, x1 = 0.3067 | 729.1 kg/m3
325.3 K, 3400 kPa, x1 = 0.3067 | 730.3 kg/m3
325.3 K, 4100 kPa, x1 = 0.3067 | 731.4 kg/m3 and 730.8 kg/m3
325.3 K, 5500 kPa, x1 = 0.3067 | 733.1 kg/m3
325.3 K, 6900 kPa, x1 = 0.3067 | 734.9 kg/m3
325.3 K, 8500 kPa, x1 = 0.3067 | 737.2 kg/m3
325.3 K, 10200 kPa, x1 = 0.3067 | 738.9 kg/m3
325.3 K, 11600 kPa, x1 = 0.3067 | 740.7 kg/m3
325.3 K, 13400 kPa, x1 = 0.3067 | 743.1 kg/m3
326.2 K, 1270 kPa, x1 = 0.1194 | 779.8 kg/m3
326.2 K, 1340 kPa, x1 = 0.1194 | 781 kg/m3
326.2 K, 2020 kPa, x1 = 0.1194 | 781.6 kg/m3
326.2 K, 2570 kPa, x1 = 0.1194 | 782.2 kg/m3
326.2 K, 3390 kPa, x1 = 0.1194 | 783.5 kg/m3
326.2 K, 4760 kPa, x1 = 0.1194 | 784.7 kg/m3
326.2 K, 5790 kPa, x1 = 0.1194 | 785.4 kg/m3
326.2 K, 7090 kPa, x1 = 0.1194 | 787.2 kg/m3
326.2 K, 10310 kPa, x1 = 0.1194 | 790.4 kg/m3
326.2 K, 13590 kPa, x1 = 0.1194 | 793.6 kg/m3
348.7 K, 1490 kPa, x1 = 0.1194 | 759.4 kg/m3
348.7 K, 1560 kPa, x1 = 0.1194 | 759.4 kg/m3
348.7 K, 1970 kPa, x1 = 0.1194 | 760 kg/m3
348.7 K, 2380 kPa, x1 = 0.1194 | 760.5 kg/m3
348.7 K, 2860 kPa, x1 = 0.1194 | 761.7 kg/m3
348.7 K, 3400 kPa, x1 = 0.1194 | 762.3 kg/m3
348.7 K, 4090 kPa, x1 = 0.1194 | 763.5 kg/m3
348.7 K, 5150 kPa, x1 = 0.1194 | 764.7 kg/m3
348.7 K, 6420 kPa, x1 = 0.1194 | 765.8 kg/m3
348.7 K, 10040 kPa, x1 = 0.1194 | 770 kg/m3
348.7 K, 13810 kPa, x1 = 0.1194 | 774.9 kg/m3
348.7 K, 16900 kPa, x1 = 0.1194 | 777.9 kg/m3
348.7 K, 21130 kPa, x1 = 0.1194 | 782.2 kg/m3
348.7 K, 23670 kPa, x1 = 0.1194 | 785.4 kg/m3
348.7 K, 27850 kPa, x1 = 0.1194 | 789.1 kg/m3
348.7 K, 30800 kPa, x1 = 0.1194 | 792.3 kg/m3
348.7 K, 32790 kPa, x1 = 0.1194 | 793.6 kg/m3
351.6 K, 4100 kPa, x1 = 0.3067 | 706.4 kg/m3
351.6 K, 4800 kPa, x1 = 0.3067 | 707.5 kg/m3
351.6 K, 5500 kPa, x1 = 0.3067 | 708.6 kg/m3
351.6 K, 5600 kPa, x1 = 0.3067 | 708.6 kg/m3
351.6 K, 6200 kPa, x1 = 0.3067 | 709.7 kg/m3
351.6 K, 6900 kPa, x1 = 0.3067 | 710.7 kg/m3
351.6 K, 8600 kPa, x1 = 0.3067 | 713.5 kg/m3
351.6 K, 10400 kPa, x1 = 0.3067 | 716.2 kg/m3
351.6 K, 13700 kPa, x1 = 0.3067 | 721.2 kg/m3
351.6 K, 17000 kPa, x1 = 0.3067 | 725.7 kg/m3
351.6 K, 20300 kPa, x1 = 0.3067 | 730.3 kg/m3
351.6 K, 20700 kPa, x1 = 0.3067 | 730.8 kg/m3
351.6 K, 27400 kPa, x1 = 0.3067 | 738.9 kg/m3
351.6 K, 30700 kPa, x1 = 0.3067 | 742.5 kg/m3
373.8 K, 4800 kPa, x1 = 0.3067 | 677.2 kg/m3
373.8 K, 4900 kPa, x1 = 0.3067 | 678.1 kg/m3
373.8 K, 5500 kPa, x1 = 0.3067 | 679.6 kg/m3
373.8 K, 6200 kPa, x1 = 0.3067 | 680.6 kg/m3
373.8 K, 6900 kPa, x1 = 0.3067 | 682.1 kg/m3
373.8 K, 8600 kPa, x1 = 0.3067 | 685.1 kg/m3
373.8 K, 10300 kPa, x1 = 0.3067 | 688.2 kg/m3
373.8 K, 16700 kPa, x1 = 0.3067 | 698.5 kg/m3
373.8 K, 17400 kPa, x1 = 0.3067 | 699.5 kg/m3
373.8 K, 24000 kPa, x1 = 0.3067 | 709.1 kg/m3
373.8 K, 30800 kPa, x1 = 0.3067 | 718.4 kg/m3
373.8 K, 36900 kPa, x1 = 0.3067 | 725.7 kg/m3
373.8 K, 37700 kPa, x1 = 0.3067 | 726.8 kg/m3
373.8 K, 44200 kPa, x1 = 0.3067 | 734.3 kg/m3
373.8 K, 51200 kPa, x1 = 0.3067 | 741.9 kg/m3
375.1 K, 1860 kPa, x1 = 0.1194 | 732.3 kg/m3
375.1 K, 2200 kPa, x1 = 0.1194 | 733.4 kg/m3
375.1 K, 2880 kPa, x1 = 0.1194 | 734.5 kg/m3
375.1 K, 3430 kPa, x1 = 0.1194 | 735 kg/m3
375.1 K, 4460 kPa, x1 = 0.1194 | 736.7 kg/m3
375.1 K, 5830 kPa, x1 = 0.1194 | 738.3 kg/m3
375.1 K, 6720 kPa, x1 = 0.1194 | 740 kg/m3
375.1 K, 7330 kPa, x1 = 0.1194 | 740.6 kg/m3
375.1 K, 10280 kPa, x1 = 0.1194 | 745 kg/m3
375.1 K, 13770 kPa, x1 = 0.1194 | 749.6 kg/m3
375.1 K, 16990 kPa, x1 = 0.1194 | 753.6 kg/m3
375.1 K, 20680 kPa, x1 = 0.1194 | 758.2 kg/m3
375.1 K, 23900 kPa, x1 = 0.1194 | 761.7 kg/m3
375.1 K, 27390 kPa, x1 = 0.1194 | 766.4 kg/m3
375.1 K, 30540 kPa, x1 = 0.1194 | 769.4 kg/m3
375.1 K, 34240 kPa, x1 = 0.1194 | 773.7 kg/m3
375.1 K, 37600 kPa, x1 = 0.1194 | 777.3 kg/m3
375.1 K, 41300 kPa, x1 = 0.1194 | 781 kg/m3
375.1 K, 44240 kPa, x1 = 0.1194 | 783.5 kg/m3
375.1 K, 47940 kPa, x1 = 0.1194 | 787.2 kg/m3
421 K, 6400 kPa, x1 = 0.3067 | 620.7 kg/m3
421 K, 6900 kPa, x1 = 0.3067 | 622.8 kg/m3
421 K, 8600 kPa, x1 = 0.3067 | 628.3 kg/m3
421 K, 10500 kPa, x1 = 0.3067 | 633.8 kg/m3
421 K, 12400 kPa, x1 = 0.3067 | 638.2 kg/m3
421 K, 13800 kPa, x1 = 0.3067 | 643 kg/m3
421 K, 17300 kPa, x1 = 0.3067 | 652 kg/m3
421 K, 20700 kPa, x1 = 0.3067 | 659.9 kg/m3
421 K, 24300 kPa, x1 = 0.3067 | 667 kg/m3
421 K, 30700 kPa, x1 = 0.3067 | 678.1 kg/m3
